This is an account of results in PMC8124942, “In Vitro and In Vivo Cell Uptake of a Cell-Penetrating Peptide Conjugated with Fluorescent Dyes Having Different Chemical Properties” (Cancers, 2021).

This data set can be described thus: Reverse-phase HPLC retention time as indicator of hydrophilicity/lipophilicity. As to conditions: chromatographic, COSMOSIL 5C18-AR-300 (4.6 x 150 mm), eluent A H2O/0.1% TFA, eluent B CH3CN/0.1% TFA, A:B = 80:20 to 20:80 in 25 min, detection 649 nm (Cy5/sulfoCy5) or 545 nm (Cy3/sulfoCy3), used as indicator of hydrophilicity/lipophilicity. The format is physicochemical. From the text:
General chemicals were of the best grade available, supplied by FUJIFILM Wako Pure Chemical Corporation (Osaka, Japan), Tokyo Chemical Industries Co., Ltd. (Tokyo, Japan), KANTO CHEMICAL Co., INC. (Tokyo, Japan), and Sigma-Aldrich Co. LLC (St. Louis, MO, USA), and were used without further purification. Cy3/Cy5-SE was purchased from Abcam (Cambridge, UK) and sulfoCy3/sulfoCy5-SE was purchased from AAT Bioquest (Sunnyvale, CA, USA). Peptide A was purchased from GlyTech, Inc. (Kyoto, Japan). MALDI-TOF mass spectra (MS) were measured with an Autoflex III TOF/TOF (Bruker Corporation, Billerica, MA, USA). Purification and high-performance liquid chromatography (HPLC) analyses were performed by HPLC systems (Shimadzu Corporation, Kyoto, Japan) with reverse-phase columns: the COSMOSIL 5C18-AR-300 (4.6 × 150 mm) (NACALAI TESQUE, INC., Kyoto, Japan) for analysis and the COSMOSIL 5C18-AR-300 (10 mm × 150 mm) (NACALAI TESQUE, INC.) for purification, using eluent A (H2O/0.1% trifluoroacetic acid (TFA)) and eluent B (CH3CN/0.1% TFA). Fluorescence images of living cells were taken on a BX41 upright fluorescent microscope (Olympus Corporation, Tokyo, Japan) equipped with a suitable filter set for Cy3/Cy5 dyes; it consisted of a 530–550 nm excitation filter and a 575–625 nm emission filter for the Cy3 dye, and a 608–648 nm excitation filter and a 652–732 nm emission filter for the Cy5 dye. […] Fluorescence images of animals and organs were taken with a FluorVivo Imaging System (Indec BioSystems, Santa Clara, CA, USA) equipped with a suitable filter set for a Cy5 dye; it consisted of a 600–640 nm excitation filter and a 665 nm long pass filter. […]
Cy3/Cy5-peptide A and sulfoCy3/sulfoCy5-peptide A were synthesized using commercially available Cy3/Cy5 succinimidyl ester (SE) and sulfoCy3/sulfoCy5 SE (Figure 1). […] Dye-SE and dye-peptide A were analyzed by HPLC under the same conditions; the retention times are shown in Table 1 because they are indicators of hydrophilicity/lipophilicity. […]
Figure S1. […] The compounds were analyzed by reverse-phase HPLC (eluent A: […]

For the compound `CCN1C(=CC=CC2=[N+](CCCCCC(=O)ON3C(=O)CCC3=O)c3ccc(S(=O)(=O)O)cc3C2(C)C)C(C)(C)c2cc(S(=O)(=O)[O-])ccc21` [sulfoCy3-SE], the “Retention Time” value came out at 7.3 min.
With `CCN1C(=CC=CC=CC2=[N+](CCCCCC(=O)ON3C(=O)CCC3=O)c3ccc(S(=O)(=O)O)cc3C2(C)C)C(C)(C)c2cc(S(=O)(=O)[O-])ccc21` [sulfoCy5-SE], the “Retention Time” value worked out at 9.3 min.
In the case of Cy5 succinimidyl ester [Cy5-SE], the “Retention Time” value amounted to 22.6 min.
